{"source": "patent US10519207B2", "about": "“Compositions and methods for treating opioid tolerance” (priority 2015, dated 2019)", "key": {"solTNF": {"target": "T1, solTNF (Mus musculus, UniProt P06804)", "T1 construct": "There are two active forms of TNF, soluble-TNF (solTNF) and transmembrane-TNF (tmTNF); host or cells: endogenous TNF of EAE animals", "T1 sequence (P06804 80-235 limits assumed)": "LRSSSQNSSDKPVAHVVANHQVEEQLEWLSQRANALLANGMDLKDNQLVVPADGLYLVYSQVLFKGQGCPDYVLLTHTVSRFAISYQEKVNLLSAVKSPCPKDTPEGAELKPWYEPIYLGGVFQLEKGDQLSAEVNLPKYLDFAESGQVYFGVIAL", "conditions": "systemic delivery; cited from earlier work"}, "TNF": {"test_system": "TNF", "sequence (P16599 80-235 limits assumed)": "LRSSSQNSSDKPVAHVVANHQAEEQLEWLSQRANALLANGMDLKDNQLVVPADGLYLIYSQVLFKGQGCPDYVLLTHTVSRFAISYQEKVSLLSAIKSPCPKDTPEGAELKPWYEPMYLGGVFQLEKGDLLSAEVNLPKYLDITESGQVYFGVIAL", "conditions": "morphine tolerant animals; cited from earlier work"}, "soluble TNF (solTNF)": {"target": "T2, soluble TNF (solTNF) (Rattus norvegicus, UniProt P16599)", "T2 construct": "soluble TNF which is formed after cleavage of tmTNF by ADAM17/TNF-αlpha Converting Enzyme (TACE); from tissue; host or cells: living rat, ventrolateral periaqueductal gray (vlPAG) / CNS", "T2 sequence (P16599 80-235)": "as the sequence (P16599 80-235 limits assumed) above", "format": "in vivo", "conditions": "24 and 72 hours after intra-PAG administration", "method": "Male Sprague Dawley rats (250-350 g; Charles River; MA) were pair-housed on a 12:12 hour light:dark cycle (lights on at 7:00 am) with ad libitum access to food and water. The Institutional Animal Care and Use Committee at Georgia State University approved all studies.\nRats were implanted with bilateral cannula aimed at the ventrolateral PAG (vlPAG) and received bilateral infusions of lenti-DN-TNF or lenti-GFP while under surgical anesthesia."}, "EAAC1 mRNA": {"test_system": "EAAC1 mRNA", "assay": "In situ hybridization of neuronal EAAC1 mRNA in caudal vlPAG", "format": "in vivo, rat"}, "TNF mRNA": {"test_system": "TNF mRNA", "assay": "qPCR of TNF mRNA in vlPAG", "format": "in vivo, rat", "conditions": "chronic morphine with or without XPro1595", "method": "(§1) Gene expression is reported as the ratio of the gene of interest to Gapdh, and are normalized to the Vehicle+Saline condition. Changes in mRNA between groups were assessed using an ANOVA on ranks (Kruskal-Wallis), and Mann Whitney U post-hoc comparisons (SPSS). Data are expressed as median; p<0.05 was considered significant."}, "IL-6 mRNA": {"test_system": "IL-6 mRNA", "assay": "qPCR of IL-6 mRNA in vlPAG", "format": "in vivo, rat", "conditions": "chronic morphine with or without XPro1595", "method": "as §1"}, "IL-10 mRNA": {"test_system": "IL-10 mRNA", "assay": "qPCR of IL-10 mRNA in vlPAG", "format": "in vivo, rat", "conditions": "chronic morphine with or without XPro1595", "method": "as §1"}}, "data": [{"molecule": "etanercept", "values": [{"measurement": "outcome in EAE", "setting": "solTNF", "value": "neither therapeutic nor neuroprotective"}, {"measurement": "effect on acute morphine inhibition of tail flick reflex", "setting": "TNF", "value": "restores the ability of morphine to acutely inhibit tail flick reflex"}]}, {"molecule": "lipopolysaccharide [LPS]", "values": [{"measurement": "baseline paw withdrawal latencies", "setting": "soluble TNF (solTNF)", "value": "no effect"}, {"measurement": "vlPAG EAAC1 mRNA", "setting": "EAAC1 mRNA; chronic vlPAG microinfusions of LPS", "value": "did not alter"}]}, {"molecule": "CN1CC[C@]23c4c5ccc(O)c4O[C@H]2[C@@H](O)C=C[C@H]3[C@H]1C5", "note": "[morphine]", "values": [{"measurement": "vlPAG EAAC1 mRNA expression", "setting": "EAAC1 mRNA; systemic morphine for 3 days", "value": "No significant effect"}, {"measurement": "vlPAG TNF gene expression", "setting": "TNF mRNA", "value": "not statistically significant"}, {"measurement": "vlPAG IL-6 mRNA", "setting": "IL-6 mRNA", "value": "No significant change"}, {"measurement": "vlPAG IL-10 mRNA", "setting": "IL-10 mRNA", "value": "No significant change"}]}]}
